Read-outs that look alike come from different tables or passages of the source.
How the values were obtained:
[1] = cited from earlier work
[2] = system: CTG-0927 HER2 positive cholangiocarcinoma PDX model; test: CTG-0927 cholangiocarcinoma PDX model, tumor growth inhibition; assay type: in vivo, Mice; settings: study day 28, tucatinib 50 mg/kg orally twice per day, trastuzumab 20 mg/kg IP once every three days
Experimental: (§1) The term “tumor growth inhibition (TGI) index” refers to a value used to represent the degree to which an agent (e.g., tucatinib, an anti-HER2 antibody, or a combination thereof) inhibits the growth of a tumor when compared to an untreated control. The TGI index is calculated for a particular time point (e.g., a specific number of days into an experiment or clinical trial) according to the following formula:
(§2) [formula] where “Tx Day 0” denotes the first day that treatment is administered (i.e., the first day that an experimental therapy or a control therapy (e.g., vehicle only) is administered) and “Tx Day X” denotes X number of days after Day 0.
(§3) Tucatinib was administered orally at a dose of 50 mg/kg twice per day for 28 days (study days 0-27). […] A vehicle-only group was included as a negative control.

CTG-0784 CRC PDX model = test: CTG-0784 CRC PDX model, tumor growth inhibition; assay type: in vivo, Mice; settings: study day 29, tucatinib 50 mg/kg orally twice per day, trastuzumab 20 mg/kg IP once every three days
Experimental: as §1, §2, §3

[3] = system: GXA 3039 gastric cancer PDX model; test: GXA 3039 gastric cancer PDX model, tumor growth inhibition; assay type: in vivo, Mice; settings: study day 29, tucatinib 50 mg/kg orally twice per day, trastuzumab 20 mg/kg IP once every three days
Experimental: as §1, §2, §3

NCI-H2170 cells = test: Response of NCI-H2170 cells in vitro; assay type: cell-based; settings: previously demonstrated
CTG-0121 CRC PDX model = test: CTG-0121 CRC PDX model, tumor growth inhibition; assay type: in vivo, Mice; settings: study day 29, tucatinib 50 mg/kg orally twice per day, trastuzumab 20 mg/kg IP once every three days
Experimental: as §1, §2, §3

[4] = system: GXA 3038 gastric cancer PDX model; test: GXA 3038 gastric cancer PDX model, tumor growth inhibition; assay type: in vivo, Mice; settings: study day 28, tucatinib 50 mg/kg orally twice per day, trastuzumab 20 mg/kg IP once every three days
Experimental: as §1, §2, §3

[5] = system: NCI-H2170 NSCLC xenograft model; test: NCI-H2170 NSCLC xenograft model, tumor growth inhibition; assay type: in vivo, Mice; settings: study day 39, tucatinib 50 mg/kg orally twice per day, trastuzumab 20 mg/kg IP twice per week, from study day 18
Experimental: as §1, §2
(§4) For the Calu-3 study, tucatinib was administered orally at a dose of 50 mg/kg twice per day for 21 days, beginning on study day 7. […] A vehicle-only group was included as a negative control.
For the NCI-H2170 study, tucatinib was administered orally at a dose of 50 mg/kg twice per day for 21 days, beginning on study day 18. […] A vehicle-only group was included as a negative control.

CTG-0383 CRC PDX model = test: CTG-0383 CRC PDX model, tumor growth inhibition; assay type: in vivo, Mice; settings: study day 29, tucatinib 50 mg/kg orally twice per day, trastuzumab 20 mg/kg IP once every three days
Experimental: as §1, §2, §3

[6] = system: CTG-0137 esophageal cancer PDX model; test: CTG-0137 esophageal cancer PDX model, tumor growth inhibition; assay type: in vivo, Mice; settings: study day 15, tucatinib 50 mg/kg orally twice per day, trastuzumab 20 mg/kg IP once every three days
Experimental: as §1, §2, §3

[7] = system: Calu-3 NSCLC xenograft model; test: Calu-3 NSCLC xenograft model, tumor growth inhibition; assay type: in vivo, Mice; settings: study day 28, tucatinib 50 mg/kg orally twice per day, trastuzumab 20 mg/kg IP once every three days, from study day 7
Experimental: as §1, §2, §4

[8] = system: GXA 3054 gastric cancer PDX model; test: GXA 3054 gastric cancer PDX model, tumor growth inhibition; assay type: in vivo, Mice; settings: study day 17, tucatinib 50 mg/kg orally twice per day, trastuzumab 20 mg/kg IP once every three days
Experimental: as §1, §2, §3

[9] = Clinical safety observations in patients; assay type: in vivo, human; settings: patients on tucatinib studies
Excerpt: Cardiac function is therefore monitored closely.
Monitoring of liver function tests is required for any patient taking tucatinib.
Patients with brain metastases are at risk for occurrence of AEs due to the presence of CNS lesions, progression of disease and toxicities potentially related to study treatment. On occasion, treatment of brain metastases with systemic or radiation therapy has been associated with localized edema thought to be due to treatment effect and not tumor progression. […] The patient's symptoms responded rapidly and completely to systemic corticosteroids. It was not known if this patient's symptoms were due to local progression or treatment-related toxicity. […] The patient was taken for surgical resection, and found to have no viable tumor. The resected lesion was thought to represent treatment-related necrosis.

[10] = system: CTG-0138 esophageal cancer PDX model; test: CTG-0138 esophageal cancer PDX model, tumor growth inhibition; assay type: in vivo, Mice; settings: study day 30, tucatinib 50 mg/kg orally twice per day, trastuzumab 20 mg/kg IP once every three days
Experimental: as §1, §2, §3

Calu-3 cells = test: Response of Calu-3 cells in vitro; assay type: cell-based; settings: previously demonstrated
[11] = attributed to anti-EGFR/HER1 activity of the drug; cited from earlier work
[12] = system: HER2 positive metastatic CRC (wild-type KRAS exon 2); settings: HERACLES patients, previous treatment with cetuximab or panitumumab; cited from earlier work
[13] = Table 11, strong inhibitors or inducers of CYP3A4
[14] = Table 10, strong inhibitors and inducer of CYP2C8

## NC(=O)N1c2ccccc2C=Cc2ccccc21 [Carbamazepine]
[1]; [13]
  Elimination Half-life: 25 to 65 h

## CC[C@H]1OC(=O)[C@H](C)[C@@H](O[C@H]2C[C@@](C)(OC)[C@@H](O)[C@H](C)O2)[C@H](C)[C@@H](O[C@@H]2O[C@H](C)C[C@H](N(C)C)[C@H]2O)[C@](C)(OC)C[C@@H](C)C(=O)[C@H](C)[C@@H](O)[C@]1(C)O [Clarithromycin]
[1]; [13]
  Elimination Half-life: 3 to 7 h

## C#C[C@]1(O)CC[C@H]2[C@@H]3CCC4=Cc5oncc5C[C@]4(C)[C@H]3CC[C@@]21C [Danazol]
[1]; [13]
  Elimination Half-life: 24 to 26 h

## CC[C@H]1OC(=O)[C@H](C)[C@@H](O[C@H]2C[C@@](C)(OC)[C@@H](O)[C@H](C)O2)[C@H](C)[C@@H](O[C@@H]2O[C@H](C)C[C@H](N(C)C)[C@H]2O)[C@](C)(O)C[C@@H](C)C(=O)[C@H](C)[C@@H](O)[C@]1(C)O [Erythromycin]
[1]; [13]
  Elimination Half-life: 2 h

## Cc1ccc(C)c(OCCCC(C)(C)C(=O)O)c1 [Gemfibrozil]
[1]; [14]
  Elimination Half-life: 1 to 2 h

## CCC(C)n1ncn(-c2ccc(N3CCN(c4ccc(OCC5COC(Cn6cncn6)(c6ccc(Cl)cc6Cl)O5)cc4)CC3)cc2)c1=O (stereo not drawn) [Itraconazole]
[1]; Table 11, single dose
  Elimination Half-life: 21 h
[1]; Table 11, steady state
  Elimination Half-life: 64 h

## CC(C)(O)c1ccccc1CC[C@@H](SCC1(CC(=O)O)CC1)c1cccc(/C=C/c2ccc3ccc(Cl)cc3n2)c1 [Montelukast]
[1]; [14]
  Elimination Half-life: 3 to 6 h (drug insert)

## CCc1nn(CCCN2CCN(c3cccc(Cl)c3)CC2)c(=O)n1CCOc1ccccc1 [Nefazodone]
[1]; [13]
  Elimination Half-life: 2 to 4 h

## O=C1NC(=O)C(c2ccccc2)(c2ccccc2)N1 [Phenytoin]
[1]; [13]
  Elimination Half-life: 7 to 42 h

## CCc1ccc(CCOc2ccc(CC3SC(=O)NC3=O)cc2)nc1 (stereo not drawn) [Pioglitazone]
[1]; [14]
  Elimination Half-life: 3 to 7 h

## O=c1c(O)c(-c2ccc(O)c(O)c2)oc2cc(O)cc(O)c12 [Quercetin]
[1]; [14]
  Elimination Half-life: <2 h

## CN(CCOc1ccc(CC2SC(=O)NC2=O)cc1)c1ccccn1 (stereo not drawn) [Rosiglitazone]
[1]; [14]
  Elimination Half-life: 16 to 24 h

## CC[C@H]1OC(=O)[C@H](C)C(=O)[C@H](C)[C@@H](O[C@@H]2O[C@H](C)C[C@H](N(C)C)[C@H]2O)[C@](C)(OC)C[C@@H](C)C(=O)[C@H](C)[C@H]2N(CCCCn3cnc(-c4cccnc4)c3)C(=O)O[C@]12C [Telithromycin]
[1]; [13]
  Elimination Half-life: 10 h

## COc1cc(Cc2cnc(N)nc2N)cc(OC)c1OC [Trimethoprim]
[1]; [14]
  Elimination Half-life: 8 to 10 h

## Cc1cc(Nc2ncnc3ccc(NC4=NC(C)(C)CO4)cc23)ccc1Oc1ccn2ncnc2c1 [Tucatinib, tucatinib]
[2]
  Observed TGI (%): 48%
CTG-0784 CRC PDX model
  Observed TGI (%): 50%
[3]
  Observed TGI (%): 48%
NCI-H2170 cells
  Response in vitro: good responses
CTG-0121 CRC PDX model
  Observed TGI (%): 104%
[4]
  Observed TGI (%): 110%
[5]
  Observed TGI (%): 91%
CTG-0383 CRC PDX model
  Observed TGI (%): 117%
[6]
  Observed TGI (%): 49%
[7]
  Observed TGI (%): 63%
[8]
  Observed TGI (%): 65%
[9]
  Elevation of liver function tests: Grade 3 and 4 elevation of LFTs have been seen in some patients
[10]
  Observed TGI (%): 69%
Calu-3 cells
  Response in vitro: good responses

## C[C@@H](c1ncncc1F)[C@](O)(Cn1cncn1)c1ccc(F)cc1F [Voriconazole]
[1]; [13]
  Elimination Half-life (hours): Dose dependent

## CC(=O)N1CCN(c2ccc(OCC3COC(Cn4ccnc4)(c4ccc(Cl)cc4Cl)O3)cc2)CC1 (stereo not drawn) [ketoconazole (systemic), ketoconazole]
[1]; [13]
  Elimination Half-life: 2 to 8 h

## CS(=O)(=O)CCNCc1ccc(-c2ccc3ncnc(Nc4ccc(OCc5cccc(F)c5)c(Cl)c4)c3c2)o1 [lapatinib]
[11]
  Toxicities: rash, diarrhea, and fatigue

## panitumumab
[12]
  ORR on previous treatment: 0%

From patent US11666572B2, “Treatment of HER2 positive cancers” (Seagen Inc., priority 2017, dated 2023)
